Data set [1] in a line: Pharmacokinetic assay, oral administration. The conditions noted are these: rat, male SD rats, p.o. 5 mg/kg, plasma, formulation differs per row. The data set is classed as in vivo. The protocol:
Test 5 Pharmacokinetic Assay
Male SD rats, oral administration (intragastric administration), 3 in each group. Animals administered by gavage were fasted overnight before the experiment, and the fasting time was from at least 12 hours before administration to 4 hours after administration. The blood was collected using the orbital vein. Time of blood collection by oral administration: 15 min, 30 min, 1 h, 2 h, 4 h, 7 h, 24 h. The blood collection volume was 300 uL, and after anticoagulation with 2.0% EDTA, the blood was centrifuged at 4000 rpm for 5 min, and the blood plasma was taken for about 100 uL, and placed in −20° C. for examination. The plasma sample was analyzed using liquid chromatography tandem mass spectrometry (LC-MS/MS). Plasma concentration-time data for individual animals were analyzed using WinNonlin (V4.1, Pharsight) software with a non-compartmental model and the pharmacokinetic parameters of the test compounds were calculated.

A further data set concerns the target Ba/F3-Del19/T790M/C797S (Homo sapiens, UniProt P00533, T790M/C797S, cells depend on it, form not given). As to the kind of experiment: Ba/F3-Del19/T790M/C797S cells proliferation assay (CellTiter Glo). Format: cell-based. Particulars: cell proliferation, 72 h, read-out: Ba/F3-Del19/T790M/C797S IC50. The protocol:
(§1) a) The medium was preheated in a 37°0 C. water bath in advance.
(§2) b) Remove the cryogenic vials from the liquid nitrogen tank, quickly put it into a 37° C. water bath, and completely melt it in 1 min.
(§3) c) Transfer the cell suspension to a 15 mL centrifuge tube containing 8 mL medium, centrifuge 1000 rpm, 5 min.
(§4) d) Discard the supernatant, resuspend the cells in 1 mL medium, and transfer to a 75 cm^2 flask containing 15 mL medium, culture the cells in an incubator at 37° C., 5% CO2.
(§5) a) The medium was preheated in a 37° C. water bath in advance.
(§6) b) Collect cell to a 15 mL centrifuged tube, centrifuge at 1000 rpm for 5 min. Discard the supernatant, count, and make the cell density at 1×10^4 cells/mL, then place it in a 37° C., 5% CO2 incubator.
(§7) a) The test compound (20 mM stock solution) was diluted to 200uM with 100% DMSO as starting concentration then 3-fold serial diluted with “9+0” concentrations. in a 96-well dilution plate (Cat # P-05525, Labcyte);
(§8) b) The above compound solution was diluted 1:20 times with culture medium to prepare a 10 fold working solution;
(§9) a) Take cells in log phase growth, centrifuge at 1000 rpm for 5 min, then resuspend the cells with culture medium, then count cells;
(§10) b) Cells were seeded to 96-well cell culture plate with density at 2000 cells/well;
(§11) a) Compounds prepared at step 2 were added to cell plate with 15 μL per well, the final concentrations were 1000,333, 111.1, 37,12.3, 4.1, 1.4, 0.5, 0.2 and 0 nM, and the final concentration of DMSO was 0.5%. The blank control well was a culture medium (0.5% DMSO);
(§12) b) The cells were incubated for an additional 72 h in the incubator.
(§13) a) Remove the 96-well cell culture plate and add 50 μl of CTG reagent (CellTiter Glo kit, promega, Cat # G7573).
(§14) b) Plate was shaked for 2 min and then let it cool for 10 min at room temperature.
(§15) c) The Luminescence signal value was read using a PerkinElmer reader. Experimental data analysis
(§16) Data were analyzed using GraphPad Prism 6.0 software to obtain a fitted curve of compound activity.
(§17) Fit the Compound IC50 from non-linear regression equation:
(§18) Y=Bottom+(Top-Bottom)/(1+10((LogIC50-X)×Hill Slope));
(§19) X: The log of the concentration of the compound; Y: Luminescence value.
(§20) The cells proliferation assay results are expressed with IC50, shown as Table 2.
In general terms: ATP-based viability assays read luminescence as a measure of living cells.

A further data set concerns the target EGFR L858R/T790M/C797S (Homo sapiens, UniProt P00533, C797S/L858R/T790M). As to the kind of experiment: Kinase assay (mobility shift), EGFR L858R/T790M/C797S. Format: biochemical. Particulars: numeric values. The protocol: [Worded in the source for another variant; this variant is reported under the same test.] Test 1 Kinase Assay for EGFR Del19/T790M/C797S and EGFR Wildtype
Enzyme reaction protocol are as follows:
1. Preparing 1* Kinase buffer as followed.
2. Preparing Compound Concentration Gradient: Compounds were tested at a concentration of 300 nM, diluted to 100-fold final concentration in 100% DMSO solution in 96-well plates, and compounds were diluted 3 times with Precision, 10 concentrations. Each concentration of the compound was then further diluted to a 5-fold final concentration of the intermediate dilution solution using 1* Kinase buffer.
3.5 μL of each of the prepared intermediate dilution compounds was separately added to the compound wells of the 384-well plate, and each concentration was tested for duplicate wells; 5 μL of 5% DMSO was added to the negative control wells and the positive control wells, respectively.
4. 2.5-fold final concentration of the kinase solution was prepared using 1*Kinase buffer.
5. Add 10 μL of 2.5-fold final concentration of kinase solution to the compound well and positive control well; add 10 μL of 1*Kinase buffer to the negative control well.
6. Centrifuge at 1000 rpm for 30 seconds, shake the reaction plate and incubate for 10 minutes at room temperature.
7. A mixed solution of 2.5 times the final concentration of ATP and Kinase substrate (5-FAM-EEPLYWSFPAKKK-CONH2) was prepared using 1*Kinase buffer.
8. 10 μL of a 2.5-fold final concentration of a mixed solution of ATP and a substrate was added to initiate the reaction.
9. Centrifuge the 384-well plate at 1000 rpm for 30 seconds, mix by shaking, and incubate at room temperature for the corresponding time.
10. Add 30 μL of the stop solution to stop the kinase reaction, centrifuge at 1000 rpm for 30 seconds, and mix by shaking.
11. Read the conversion rate with Caliper EZ Reader.
Convert conversion values to inhibition values:
Percent inhibition 32 (max-conversion)/(max-min)*100.
“max” stands for the mean value of the positive control well ratio; “min” stands for the mean value of the negative control well.
Fit the data in log(inhibitor) vs. response Variable slope of GraphPad Prism 5 to obtain IC50 values.
Equation used is: Y=Bottom+(Top-Bottom)/(1+(IC50/X)^HillSlope)

The next data set concerns the target Ba/F3-L858R/T790M/C797S (Homo sapiens, UniProt P00533, T790M/C797S/L858R, cells depend on it). As to the kind of experiment: Ba/F3-L858R/T790M/C797S cells proliferation assay (CellTiter Glo). Format: cell-based. The conditions noted are these: cell proliferation, 72 h, read-out: Ba/F3-L858R/T790M/C797S IC50. The protocol: as §1, §2, §3, §4, §5, §6, §7, §8, §9, §10, §11, §12, §13, §14, §15, §16, §17, §18, §19, §20

For a further data set, the system named is A431 (WT). As to the kind of experiment: A431 cells proliferation assay (CellTiter Glo). The data set is classed as cell-based. The conditions noted are these: Homo sapiens, A-431; cell proliferation, 72 h. The procedure:
Test 4 A431 Cells Proliferation Assay
DMEM and 10% FBS and 1% PS.
as §5, §2, §3, §4, §6
a) The test compound (20 mM stock solution) was diluted to 2 mM with 100% DMSO as starting concentration then 3-fold serial diluted with “9+0” concentrations. in a 96-well dilution plate (Cat # P-05525, Labcyte);
b) The above compound solution was diluted 1:40 times with culture medium to prepare a 5 fold working solution;
as §9
b) Cells were seeded to 96-well cell culture plate with density at 5000 cells/well;
a) Compounds prepared at step 2 were added to cell plate with 40 μL per well, the final concentrations were 10000, 3333,1111.1, 370.4, 123.5, 41.2, 13.7, 4.6, 1.5 and 0 nM, and the final concentration of DMSO was 0.5%. The blank control well was a culture medium (0.5% DMSO);
as §12
a) Remove the 96-well cell culture plate and add 60 μl of CTG reagent (CellTiter Glo kit, promega, Cat # G7573).
as §14
c) The Luminescence signal value was read using a PerkinElmer reader.
Experimental Data Analysis
as §16, §17
Y=Bottom+(Top-Bottom)/(1+10((LogIC50-X)×HillSlope));
as §19
The cells proliferation assay results are expressed with IC50, shown as Table 3.

Results on ten compounds are retold here after patent US20220064196A1, “EGFR Inhibitors, Compositions and Methods Thereof” (Betta Pharmaceuticals Co., Ltd., priority 2019, published 2022).

As a reminder, the AUC(0-t) is the area under the concentration-time curve up to a stated or last time point. The low end stands for low exposure, the high end for high exposure. A word on the Cmax: it is the highest concentration seen after dosing. For orientation: Tmax means the time from dosing to the highest level. What is called half-life is the time in which the quantity being followed falls by half. What is called IC50 is the concentration at which inhibition is half-maximal.

Counter-ions that a name gives are not always drawn. Like-named read-outs stand apart in the source and are kept apart here. Bounds are passed on as bounds.

Chain of Ba/F3-L858R/T790M/C797S (P00533 whole entry T790M/C797S/L858R): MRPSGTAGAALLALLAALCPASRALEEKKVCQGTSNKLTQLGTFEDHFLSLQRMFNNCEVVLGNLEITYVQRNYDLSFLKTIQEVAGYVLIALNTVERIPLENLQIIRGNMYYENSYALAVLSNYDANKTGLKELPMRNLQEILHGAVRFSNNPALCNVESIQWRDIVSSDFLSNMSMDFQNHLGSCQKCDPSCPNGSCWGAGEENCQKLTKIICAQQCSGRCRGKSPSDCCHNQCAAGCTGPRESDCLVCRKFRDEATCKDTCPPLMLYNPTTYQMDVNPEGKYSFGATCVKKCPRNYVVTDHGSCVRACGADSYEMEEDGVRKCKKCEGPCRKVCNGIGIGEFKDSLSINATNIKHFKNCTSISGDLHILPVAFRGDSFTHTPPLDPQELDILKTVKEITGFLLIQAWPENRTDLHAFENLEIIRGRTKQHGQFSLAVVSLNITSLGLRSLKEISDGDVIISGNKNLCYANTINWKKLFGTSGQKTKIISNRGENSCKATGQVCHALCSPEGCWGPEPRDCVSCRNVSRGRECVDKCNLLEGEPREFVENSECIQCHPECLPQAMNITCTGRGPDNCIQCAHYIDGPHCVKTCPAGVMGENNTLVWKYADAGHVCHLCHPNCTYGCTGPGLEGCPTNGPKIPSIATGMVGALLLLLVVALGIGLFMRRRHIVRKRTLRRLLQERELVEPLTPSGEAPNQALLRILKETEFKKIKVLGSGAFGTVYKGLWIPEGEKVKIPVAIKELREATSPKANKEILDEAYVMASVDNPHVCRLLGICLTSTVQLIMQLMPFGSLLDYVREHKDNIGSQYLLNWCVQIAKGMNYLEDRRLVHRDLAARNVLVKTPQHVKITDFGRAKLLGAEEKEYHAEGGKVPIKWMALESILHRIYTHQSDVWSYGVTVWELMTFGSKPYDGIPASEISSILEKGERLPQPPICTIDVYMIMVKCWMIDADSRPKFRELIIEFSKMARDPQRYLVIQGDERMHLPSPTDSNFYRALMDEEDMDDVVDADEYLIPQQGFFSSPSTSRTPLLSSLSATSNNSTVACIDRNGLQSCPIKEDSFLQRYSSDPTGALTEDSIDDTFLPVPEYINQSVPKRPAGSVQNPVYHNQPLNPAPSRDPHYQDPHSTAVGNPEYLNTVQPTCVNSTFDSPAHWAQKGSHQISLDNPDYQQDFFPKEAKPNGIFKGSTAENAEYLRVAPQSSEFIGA
Chain of Ba/F3-Del19/T790M/C797S (P00533 with tags, fused parts or gaps DEL746-750/T790M/C797S, form open): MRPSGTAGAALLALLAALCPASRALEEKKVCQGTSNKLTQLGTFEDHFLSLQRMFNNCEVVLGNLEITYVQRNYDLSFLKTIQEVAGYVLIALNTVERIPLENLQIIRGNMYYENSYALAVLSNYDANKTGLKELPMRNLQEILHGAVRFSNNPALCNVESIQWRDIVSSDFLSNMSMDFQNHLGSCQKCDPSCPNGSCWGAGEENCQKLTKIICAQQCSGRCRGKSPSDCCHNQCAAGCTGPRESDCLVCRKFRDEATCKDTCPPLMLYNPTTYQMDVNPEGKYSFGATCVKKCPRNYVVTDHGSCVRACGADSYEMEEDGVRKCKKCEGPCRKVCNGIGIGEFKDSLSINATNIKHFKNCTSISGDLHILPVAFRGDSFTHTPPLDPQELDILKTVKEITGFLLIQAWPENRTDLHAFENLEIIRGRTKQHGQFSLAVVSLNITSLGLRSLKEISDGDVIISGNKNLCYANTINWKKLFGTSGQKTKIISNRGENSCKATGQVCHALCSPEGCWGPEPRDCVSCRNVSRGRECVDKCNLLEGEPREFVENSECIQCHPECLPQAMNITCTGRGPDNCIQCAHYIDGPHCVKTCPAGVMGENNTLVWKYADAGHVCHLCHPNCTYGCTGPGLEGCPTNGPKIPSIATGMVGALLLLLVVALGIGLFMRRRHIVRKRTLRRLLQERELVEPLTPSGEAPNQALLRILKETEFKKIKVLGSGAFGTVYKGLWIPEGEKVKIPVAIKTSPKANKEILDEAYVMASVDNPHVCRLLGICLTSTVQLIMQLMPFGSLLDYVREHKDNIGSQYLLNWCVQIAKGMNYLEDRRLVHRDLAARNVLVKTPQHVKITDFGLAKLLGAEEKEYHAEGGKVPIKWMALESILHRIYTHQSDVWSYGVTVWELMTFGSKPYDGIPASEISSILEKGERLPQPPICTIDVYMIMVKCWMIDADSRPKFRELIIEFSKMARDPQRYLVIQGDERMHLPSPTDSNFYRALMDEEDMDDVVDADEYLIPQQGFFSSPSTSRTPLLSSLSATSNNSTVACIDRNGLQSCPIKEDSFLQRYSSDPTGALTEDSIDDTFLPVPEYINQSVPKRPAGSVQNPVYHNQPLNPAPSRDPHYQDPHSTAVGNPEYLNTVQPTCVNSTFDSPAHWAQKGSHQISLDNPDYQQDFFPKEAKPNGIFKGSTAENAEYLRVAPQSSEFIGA
Chain of EGFR L858R/T790M/C797S (P00533 25-1210 T790M/C797S/L858R): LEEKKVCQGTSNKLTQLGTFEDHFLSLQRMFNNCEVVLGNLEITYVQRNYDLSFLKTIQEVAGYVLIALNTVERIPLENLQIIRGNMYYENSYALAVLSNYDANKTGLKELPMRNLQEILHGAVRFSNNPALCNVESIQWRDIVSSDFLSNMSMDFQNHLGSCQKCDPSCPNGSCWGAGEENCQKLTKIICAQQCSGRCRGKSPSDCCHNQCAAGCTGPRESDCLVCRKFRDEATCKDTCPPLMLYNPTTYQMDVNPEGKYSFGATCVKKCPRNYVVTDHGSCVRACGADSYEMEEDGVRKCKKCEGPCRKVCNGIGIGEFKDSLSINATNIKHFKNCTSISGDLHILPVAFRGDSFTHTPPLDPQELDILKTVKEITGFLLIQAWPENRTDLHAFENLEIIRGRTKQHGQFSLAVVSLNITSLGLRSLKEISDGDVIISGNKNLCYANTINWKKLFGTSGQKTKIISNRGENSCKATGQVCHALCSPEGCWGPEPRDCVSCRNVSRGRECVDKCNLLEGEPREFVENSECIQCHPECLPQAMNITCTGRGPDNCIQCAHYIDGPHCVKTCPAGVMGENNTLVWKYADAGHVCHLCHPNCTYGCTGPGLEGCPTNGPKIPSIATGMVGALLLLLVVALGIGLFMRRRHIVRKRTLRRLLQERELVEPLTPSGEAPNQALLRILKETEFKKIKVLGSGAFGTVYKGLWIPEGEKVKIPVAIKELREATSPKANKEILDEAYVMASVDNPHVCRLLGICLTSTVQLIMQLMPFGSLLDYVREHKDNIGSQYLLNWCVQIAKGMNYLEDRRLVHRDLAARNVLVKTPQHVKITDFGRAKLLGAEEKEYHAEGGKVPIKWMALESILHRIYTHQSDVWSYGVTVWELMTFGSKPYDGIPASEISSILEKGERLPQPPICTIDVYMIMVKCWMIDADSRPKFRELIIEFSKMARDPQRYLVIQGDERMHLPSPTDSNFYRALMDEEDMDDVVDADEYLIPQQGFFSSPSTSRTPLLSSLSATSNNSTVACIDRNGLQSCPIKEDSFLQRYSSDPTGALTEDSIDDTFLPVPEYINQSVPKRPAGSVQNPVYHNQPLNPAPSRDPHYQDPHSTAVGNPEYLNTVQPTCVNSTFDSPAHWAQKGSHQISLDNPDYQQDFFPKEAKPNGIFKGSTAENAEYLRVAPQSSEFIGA

For the compound `CCN1CC2(C1)CN(c1ccc(Nc3ncc(Cl)c(Nc4ccccc4P(C)(C)=O)n3)cc1C)C2` [Comparative compound B, (2-((5-chloro-2-((4-(6-ethyl-2,6-diazaspiro[3.3]heptan-2-yl)-3-methylphenyl)amino)pyrimidin-4-yl)amino)phenyl)dimethylphosphine oxide, reference compound], in data set [1], the AUC(0-t) turned out to be 202 ng·h/mL, the concentration peaked (Cmax) at 67.2 ng/mL, the Tmax came out at 2.75 h and the half-life is 4.09 h.

As to `Cc1cc(Nc2ncc(Cl)c(Nc3ccccc3P(C)(C)=O)n2)ccc1N1CC2(CCC(N)CC2)C1` [Example 3, (2-((2-((4-(7-amino-2-azaspiro[3.5]nonan-2-yl)-3-methylphenyl)amino)-5-chloropyrimidin-4-yl)amino)phenyl)dimethylphosphine oxide], the GI50 on Ba/F3-Del19/T790M/C797S (class symbols) and at Ba/F3-L858R/T790M/C797S (class symbols) was 10 to 50 nM in each case. Further, the IC50 on EGFR L858R/T790M/C797S was 2.8 nM.

Regarding `CN(C)C1CCC2(CC1)CN(c1ccc(Nc3ncc(Cl)c(Nc4ccccc4P(C)(C)=O)n3)cc1C1CC1)C2` [Example 5, (2-((5-chloro-2-((3-cyclopropyl-4-(7-(dimethylamino)-2-azaspiro[3.5]nonan-2-yl)phenyl)amino)pyrimidin-4-yl)amino)phenyl)dimethylphosphine oxide], the GI50 at Ba/F3-Del19/T790M/C797S (class symbols) and on Ba/F3-L858R/T790M/C797S (class symbols) was 10 to 50 nM each time. At EGFR L858R/T790M/C797S, the IC50 was 1.5 nM.

For `CN(C)C1CC2(CCN(c3ccc(Nc4nccc(Nc5ccccc5P(C)(C)=O)n4)cc3Cl)CC2)C1` [Example 7, (2-((2-((3-chloro-4-(2-(dimethylamino)-7-azaspiro[3.5]nonan-7-yl)phenyl)amino)pyrimidin-4-yl)amino)phenyl)dimethylphosphine oxide], the GI50 on Ba/F3-Del19/T790M/C797S (class symbols) and at Ba/F3-L858R/T790M/C797S (class symbols) was more than 50 nM each time. Moreover, the IC50 at EGFR L858R/T790M/C797S came to 7.8 nM; in the data set with A431 (WT), 341 nM.

`CP(C)(=O)c1ccccc1Nc1ccnc(Nc2ccc(N3CCC4(CC3)CC(N)C4)c(Cl)c2)n1` [Example 9, (2-((2-((4-(2-amino-7-azaspiro[3.5]nonan-7-yl)-3-chlorophenyl)amino)pyrimidin-4-yl)amino)phenyl)dimethylphosphine oxide]: the GI50 on Ba/F3-Del19/T790M/C797S (class symbols) and on Ba/F3-L858R/T790M/C797S (class symbols) was more than 50 nM in each case. In addition, at EGFR L858R/T790M/C797S, the IC50 was 11 nM.

Turning to `CP(C)(=O)c1ccccc1Nc1nc(Nc2ccc(N3CC4(CCC(N)CC4)C3)c(Cl)c2)ncc1Cl` [Example 11, (2-((2-((4-(7-amino-2-azaspiro[3.5]nonan-2-yl)-3-chlorophenyl)amino)-5-chloropyrimidin-4-yl)amino)phenyl)dimethylphosphine oxide], the figures for the GI50 at Ba/F3-Del19/T790M/C797S (numeric values) and at Ba/F3-L858R/T790M/C797S (class symbols) were 26.3 nM and 10 to 50 nM, respectively. Moreover, the IC50 on EGFR L858R/T790M/C797S came out at 2.6 nM.

Regarding `CP(C)(=O)c1ccccc1Nc1nc(Nc2ccc(N3CCC4(CC3)CC(N)C4)cc2)ncc1Cl` [Example 16, (2-((2-((4-(2-amino-7-azaspiro[3.5]nonan-7-yl)phenyl)amino)-5-chloropyrimidin-4-yl)amino)phenyl)dimethylphosphine oxide hydrochloride], the GI50 on Ba/F3-Del19/T790M/C797S (numeric values) was determined as 8 nM; at Ba/F3-L858R/T790M/C797S (numeric values) it was 6.9 nM.

In the case of `CP(C)(=O)c1ccccc1Nc1nc(Nc2ccc(N3CCC4(CC3)CC(N)C4)c(C(F)(F)F)c2)ncc1Cl` [Example 18, (2-((2-((4-(2-amino-7-azaspiro[3.5]nonan-7-yl)-3-(trifluoromethyl)phenyl)amino)-5-chloropyrimidin-4-yl)amino)phenyl)dimethylphosphine oxide], the GI50 at Ba/F3-Del19/T790M/C797S (class symbols) and on Ba/F3-L858R/T790M/C797S (class symbols) was 10 to 50 nM throughout. For the same compound, the IC50 at EGFR L858R/T790M/C797S worked out at 16 nM.

As for `CNC1CC2(CCN(c3ccc(Nc4ncc(Cl)c(Nc5ccccc5P(C)(C)=O)n4)cc3Cl)CC2)C1` [Example 20, (2-((5-chloro-2-((3-chloro-4-(2-(methylamino)-7-azaspiro[3.5]nonan-7-yl)phenyl)amino)pyrimidin-4-yl)amino)phenyl)dimethylphosphine oxide], the GI50 on Ba/F3-Del19/T790M/C797S (class symbols) and on Ba/F3-L858R/T790M/C797S (class symbols) was 10 to 50 nM each time. In addition, the IC50 at EGFR L858R/T790M/C797S is 2.3 nM.

For `CN(C)C1CC2(CCN(c3ccc(Nc4ncc(Cl)c(Nc5ccccc5P(C)(C)=O)n4)cc3F)CC2)C1` [Example 30, (2-((5-chloro-2-((4-(2-(dimethylamino)-7-azaspiro[3.5]nonan-7-yl)-3-fluorophenyl)amino)pyrimidin-4-yl)amino)phenyl)dimethylphosphine oxide], the GI50 at Ba/F3-Del19/T790M/C797S (class symbols) is not above 10 nM; on Ba/F3-L858R/T790M/C797S (class symbols), 10 to 50 nM. Moreover, the IC50 at EGFR L858R/T790M/C797S worked out at 1.1 nM; in the data set on A431 (WT), 30 nM.
